molecular target: Ba/F3 cell line expressing TYK2 (Homo sapiens, UniProt P29597, cells depend on it, form not given); assay: In vitro cellular inhibition assay (Ba/F3 cell proliferation, CellTiter-Glo); assay type: cell-based; details: read-out: IC50 (the source's name)
Procedure: The inhibitory effect of the compounds of formula (I) according to the present invention on the TYK2 signaling pathway in cells was assessed using the following method:
Instrumentation: SpectraMax Paradigm reader.
Method: in this experiment, a Ba/F3 cell line expressing TYK2 was employed to assess the effect of the compounds on cell proliferation inhibition by measuring their effects on cell activity in vitro.
Procedure: a CellTiter-Glo buffer was thawed and placed aside till room temperature. A CellTiter-Glo substrate was placed aside till room temperature and dissolved with the buffer to prepare a CellTiter-Glo working solution. To a 96-well flat bottom transparent drug plate, 98 μL of cell culture medium and 2 μL of gradient diluted compound solution were added. The drug plate was placed aside for 10 min, and then 50 μL of the CellTiter-Glo working solution was added. The drug plate was subsequently shaken on an orbital shaker for 2 min and placed aside at room temperature for an additional 10 min. Finally, the luminescence signal was measured on the SpectraMax Paradigm reader.
Data Analysis: the cell proliferation inhibition rate data were processed using the following formula:
Inhibition Rate (Inh %)=100−(RLUDrug−RLUMin)/(RLUMax−RLUMin)×100%.
The inhibition rates of compounds with different concentrations were calculated in EXCEL, and then GraphPad Prism software was employed to plot inhibition rate curve and calculate relevant parameters, including maximum and minimum cell inhibition rates, IC50 values.

GI50, 5 to 10 nM:
[2H]C([2H])([2H])NC(=O)c1nnc(NC(=O)C2CC2)cc1Nc1cccc(C(=O)Nc2ncccn2)c1OC [Example 51], [2H]C([2H])([2H])NC(=O)c1nnc(NC(=O)C2CC2)cc1Nc1cccc(C(=O)Nc2cncnc2)c1OC [Example 52], [2H]C([2H])([2H])NC(=O)c1cnc(NC(=O)C2CC2)cc1Nc1cccc(C(=O)Nc2ccccc2)c1OC [Example 53], [2H]C([2H])([2H])NC(=O)c1cnc(NC(=O)C2CC2)cc1Nc1cccc(C(=O)Nc2ccccc2C)c1OC [Example 56], [2H]C([2H])([2H])NC(=O)c1cnc(NC(=O)C2CC2)cc1Nc1cccc(C(=O)Nc2cccc(F)c2)c1OC [Example 58], [2H]C([2H])([2H])NC(=O)c1cnc(NC(=O)C2CC2)cc1Nc1cccc(C(=O)Nc2ccccc2F)c1OC [Example 59], [2H]C([2H])([2H])NC(=O)c1cnc(NC(=O)C2CC2)cc1Nc1cccc(C(=O)Nc2cccc(C)c2C)c1OC [Example 60], [2H]C([2H])([2H])NC(=O)c1cnc(NC(=O)C2CC2)cc1Nc1cccc(C(=O)Nc2cc(C)cc(C)c2)c1OC [Example 61], [2H]C([2H])([2H])NC(=O)c1cnc(NC(=O)C2CC2)cc1Nc1cccc(C(=O)Nc2cccc(C3CC3)c2)c1OC [Example 63], [2H]C([2H])([2H])NC(=O)c1cnc(NC(=O)C2CC2)cc1Nc1cccc(C(=O)Nc2cccc(C(F)(F)F)c2)c1OC [Example 64], [2H]C([2H])([2H])NC(=O)c1cnc(NC(=O)C2CC2)cc1Nc1cccc(C(=O)Nc2cccc(CC)c2)c1OC [Example 65], [2H]C([2H])([2H])NC(=O)c1cnc(NC(=O)C2CC2)cc1Nc1cccc(C(=O)Nc2cccc(OC)c2)c1OC [Example 66], [2H]C([2H])([2H])NC(=O)c1cnc(NC(=O)C2CC2)cc1Nc1cccc(C(=O)Nc2cccc(C#N)c2)c1OC [Example 67], [2H]C([2H])([2H])NC(=O)c1cnc(NC(=O)C2CC2)cc1Nc1cccc(C(=O)Nc2cccc(C(C)C)c2)c1OC [Example 68], [2H]C([2H])([2H])NC(=O)c1cnc(NC(=O)C2CC2)cc1Nc1cccc(C(=O)Nc2cccc(C(C)(C)C)c2)c1OC [Example 69], [2H]C([2H])([2H])NC(=O)c1cnc(NC(=O)C2CC2)cc1Nc1cccc(C(=O)Nc2ccc(CC)cc2)c1OC [Example 70], [2H]C([2H])([2H])NC(=O)c1cnc(NC(=O)C2CC2)cc1Nc1cccc(C(=O)Nc2ccc(C3CC3)cc2)c1OC [Example 71], [2H]C([2H])([2H])NC(=O)c1cnc(NC(=O)C2CC2)cc1Nc1cccc(C(=O)Nc2ccc(C(C)C)cc2)c1OC [Example 72], [2H]C([2H])([2H])NC(=O)c1cnc(NC(=O)C2CC2)cc1Nc1cccc(C(=O)Nc2ccc(C(C)(C)C)cc2)c1OC [Example 73], [2H]C([2H])([2H])NC(=O)c1cnc(NC(=O)C2CC2)cc1Nc1cccc(C(=O)Nc2ccc(C(F)(F)F)cc2)c1OC [Example 74], [2H]C([2H])([2H])NC(=O)c1cnc(NC(=O)C2CC2)cc1Nc1cccc(C(=O)Nc2ccc(C#N)cc2)c1OC [Example 75], [2H]C([2H])([2H])NC(=O)c1cnc(NC(=O)C2CC2)cc1Nc1cccc(C(=O)Nc2ccc(OC)cc2)c1OC [Example 76], [2H]C([2H])([2H])NC(=O)c1cnc(NC(=O)C2CC2)cc1Nc1cccc(C(=O)Nc2ccc(CC)c(C)c2)c1OC [Example 77], [2H]C([2H])([2H])NC(=O)c1cnc(NC(=O)C2CC2)cc1Nc1cccc(C(=O)Nc2ccc(C3CC3)c(C)c2)c1OC [Example 78], [2H]C([2H])([2H])NC(=O)c1cnc(NC(=O)C2CC2)cc1Nc1cccc(C(=O)Nc2ccc(C(C)C)c(C)c2)c1OC [Example 79], [2H]C([2H])([2H])NC(=O)c1cnc(NC(=O)C2CC2)cc1Nc1cccc(C(=O)Nc2ccc(C(C)(C)C)c(C)c2)c1OC [Example 80], [2H]C([2H])([2H])NC(=O)c1cnc(NC(=O)C2CC2)cc1Nc1cccc(C(=O)Nc2ccc(C(F)(F)F)c(C)c2)c1OC [Example 81], [2H]C([2H])([2H])NC(=O)c1cnc(NC(=O)C2CC2)cc1Nc1cccc(C(=O)Nc2ccc(C#N)c(C)c2)c1OC [Example 82], [2H]C([2H])([2H])NC(=O)c1cnc(NC(=O)C2CC2)cc1Nc1cccc(C(=O)Nc2ccc(OC)c(C)c2)c1OC [Example 83], [2H]C([2H])([2H])NC(=O)c1cnc(NC(=O)C2CC2)cc1Nc1cccc(C(=O)Nc2ccc(F)c(C)c2)c1OC [Example 84], [2H]C([2H])([2H])NC(=O)c1cnc(NC(=O)C2CC2)cc1Nc1cccc(C(=O)Nc2ccn(C)n2)c1OC [Example 85], [2H]C([2H])([2H])NC(=O)c1cnc(NC(=O)C2CC2)cc1Nc1cccc(C(=O)Nc2cn(C)cn2)c1OC [Example 87], [2H]C([2H])([2H])NC(=O)c1cnc(NC(=O)C2CC2)cc1Nc1cccc(C(=O)Nc2ncn(C)n2)c1OC [Example 88], [2H]C([2H])([2H])NC(=O)c1cnc(NC(=O)C2CC2)cc1Nc1cccc(C(=O)Nc2cccc(C)n2)c1OC [Example 89], [2H]C([2H])([2H])NC(=O)c1cnc(NC(=O)C2CC2)cc1Nc1cccc(C(=O)Nc2ccnc(C)c2)c1OC [Example 90], [2H]C([2H])([2H])NC(=O)c1cnc(NC(=O)C2CC2)cc1Nc1cccc(C(=O)Nc2cc(C)ccn2)c1OC [Example 92], [2H]C([2H])([2H])NC(=O)c1cnc(NC(=O)C2CC2)cc1Nc1cccc(C(=O)Nc2ncc(F)cn2)c1OC [Example 93], [2H]C([2H])([2H])NC(=O)c1cnc(NC(=O)C2CC2)cc1Nc1cccc(C(=O)Nc2ccc(F)cn2)c1OC [Example 94], [2H]C([2H])([2H])NC(=O)c1cnc(NC(=O)C2CC2)cc1Nc1cccc(C(=O)Nc2ccc(C)cn2)c1OC [Example 95], [2H]C([2H])([2H])NC(=O)c1cnc(NC(=O)C2CC2)cc1Nc1cccc(C(=O)Nc2ncc(C)cn2)c1OC [Example 97], [2H]C([2H])([2H])NC(=O)c1cnc(NC(=O)C2CC2)cc1Nc1cccc(C(=O)Nc2ccc(F)nc2)c1OC [Example 98], [2H]C([2H])([2H])NC(=O)c1cnc(NC(=O)C2CC2)cc1Nc1cccc(C(=O)Nc2cnc(F)nc2)c1OC [Example 99], [2H]C([2H])([2H])NC(=O)c1cnc(NC(=O)C2CC2)cc1Nc1cccc(C(=O)Nc2ccccn2)c1OC [Example 100], [2H]C([2H])([2H])NC(=O)c1cnc(NC(=O)C2CC2)cc1Nc1cccc(C(=O)Nc2cccnc2)c1OC [Example 101], [2H]C([2H])([2H])NC(=O)c1cnc(NC(=O)C2CC2)cc1Nc1cccc(C(=O)Nc2ccncc2)c1OC [Example 102], [2H]C([2H])([2H])NC(=O)c1cnc(NC(=O)C2CC2)cc1Nc1cccc(C(=O)Nc2ncccn2)c1OC [Example 103], [2H]C([2H])([2H])NC(=O)c1cnc(NC(=O)C2CC2)cc1Nc1cccc(C(=O)Nc2cncnc2)c1OC [Example 104], [2H]C([2H])([2H])NC(=O)c1nnc(NC(=O)C2CC2)cc1Nc1cccc(C(=O)NC(C)(C)C)c1OC [Example 105], [2H]C([2H])([2H])NC(=O)c1cnc(NC(=O)C2CC2)cc1Nc1cccc(C(=O)NC(C)(C)C)c1OC [Example 106]

Source: patent US20260098017A1, “NOVEL AROMATIC RING DERIVATIVE CONTAINING AMIDE SUBSTITUTION AND USE THEREOF” (TIANJIN PHARMACEUTICAL BIOTECHNOLOGY CO., LTD., priority 2022, published 2026)
